Drawing on PubChem BioAssay (NCI), this text covers GI50 and TGI for seven compounds.

As a reminder, the GI50 is the concentration that inhibits growth by half. In general, TGI refers to the concentration at which net growth stops.

Some test systems named below: ACHN renal; SF-268 CNS; RPMI-8226 leukemia; UACC-62 melanoma; SK-MEL-5 melanoma; EKVX NSCLC; SK-MEL-28 melanoma; LOX IMVI melanoma.
Assay in all cases: DTP human tumour cell line panel, 48 h

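These data come from cells grown in 96-well plates and exposed to compound for 48 hours at five concentrations. GI50 = concentration required for 50% inhibition of growth. At the TGI there is no net growth.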 Where only a bound is given, the exact number is not on record here.

With `O=c1cc(N2CCN(CCCCCOc3cc(O)c4c(=O)cc(-c5ccccc5)oc4c3)CC2)c2ccccc2o1`, the GI50 in the assay with ACHN renal was above 100 µM; in the assay with SF-268 CNS it was above 100 µM; in the assay on RPMI-8226 leukemia, 12.4 µM; in the assay on UACC-62 melanoma it was 36.2 µM; with SK-MEL-5 melanoma it was 28 µM; with EKVX NSCLC, above 100 µM. In addition, the GI50 in the assay with SK-MEL-28 melanoma was 61.8 µM; in the assay on LOX IMVI melanoma it was 51.2 µM. Besides, the TGI in the assay on ACHN renal, in the assay with SF-268 CNS, with RPMI-8226 leukemia, with UACC-62 melanoma, in the assay with SK-MEL-5 melanoma and with EKVX NSCLC was above 100 µM throughout. The TGI in the assay on SK-MEL-28 melanoma and in the assay on LOX IMVI melanoma was above 100 µM each time.
Consider `N#Cc1ccc2c(c1)C(=O)c1c-2n(CCCCl)c(=O)c2cc([N+](=O)[O-])ccc12`, for which the GI50 in the assay with ACHN renal is 1.91 µM; in the assay on SF-268 CNS, 1.49 µM; with RPMI-8226 leukemia it was 3.44 µM; in the assay on UACC-62 melanoma it was 1.13 µM; in the assay with SK-MEL-5 melanoma, 5.07 µM; in the assay with EKVX NSCLC, 50.4 µM. The GI50 in the assay with SK-MEL-28 melanoma is 41.1 µM; with LOX IMVI melanoma, 2.28 µM. For the same compound, the total growth inhibition concentration (TGI) in the assay on ACHN renal is 6.59 µM; in the assay with SF-268 CNS, above 100 µM; in the assay with RPMI-8226 leukemia, 20.6 µM; with UACC-62 melanoma, 9.96 µM; with SK-MEL-5 melanoma, 71.5 µM; with EKVX NSCLC it was above 100 µM. Besides, the TGI with SK-MEL-28 melanoma is above 100 µM; in the assay on LOX IMVI melanoma, 14.8 µM.
On to `Cc1nc2sc(C(=O)Nc3cccc4ccccc34)c(N)c2cc1C(O)c1ccccc1` (configuration not stated), for which the 50% growth inhibitory concentration (GI50) is 0.0726 µM in the assay on ACHN renal; 0.174 µM with SF-268 CNS; 0.0595 µM with RPMI-8226 leukemia; 0.0747 µM with UACC-62 melanoma; 0.0993 µM in the assay on SK-MEL-5 melanoma; 0.375 µM with EKVX NSCLC. The figures for the GI50 in the assay with SK-MEL-28 melanoma and in the assay with LOX IMVI melanoma were 1.14 µM and 0.0568 µM, respectively. In addition, the TGI amounted to 19.2 µM in the assay on ACHN renal; 11.2 µM in the assay with SF-268 CNS; 5.74 µM in the assay with RPMI-8226 leukemia; 12.3 µM in the assay with UACC-62 melanoma; 0.717 µM with SK-MEL-5 melanoma; 37.5 µM with EKVX NSCLC. Moreover, the values for the TGI in the assay on SK-MEL-28 melanoma and with LOX IMVI melanoma were 24.2 µM and 6.67 µM, respectively.
Take `COc1ccc(-c2cc(-c3cccn3C)c(C#N)c(=O)[nH]2)cc1OC`: the GI50 in the assay with ACHN renal was above 100 µM; in the assay on SF-268 CNS, above 100 µM; in the assay with RPMI-8226 leukemia, above 100 µM; in the assay with UACC-62 melanoma it was 65.5 µM; in the assay with SK-MEL-5 melanoma it was above 100 µM; in the assay with EKVX NSCLC it was 30.7 µM. Further, the GI50 in the assay with SK-MEL-28 melanoma and in the assay with LOX IMVI melanoma was above 100 µM throughout. The TGI in the assay with ACHN renal, in the assay on SF-268 CNS, in the assay with RPMI-8226 leukemia, in the assay on UACC-62 melanoma, in the assay on SK-MEL-5 melanoma and with EKVX NSCLC was above 100 µM in each case. In addition, the TGI with SK-MEL-28 melanoma and in the assay on LOX IMVI melanoma was above 100 µM throughout.
With `O=C1NC(=O)C(c2ccccc2Cl)=C1Nc1cc(Cl)c(O)c(Cl)c1`, the GI50 is above 23.7 µM in the assay with ACHN renal; 12.1 µM in the assay with SF-268 CNS; above 19.4 µM in the assay on RPMI-8226 leukemia; 11.4 µM with UACC-62 melanoma; 11.7 µM in the assay on SK-MEL-5 melanoma; above 25 µM with EKVX NSCLC. In addition, the GI50 in the assay on SK-MEL-28 melanoma was above 14.6 µM; in the assay on LOX IMVI melanoma, 11.3 µM. Besides, the TGI in the assay with ACHN renal, in the assay on SF-268 CNS, with RPMI-8226 leukemia, with UACC-62 melanoma, in the assay with SK-MEL-5 melanoma and in the assay with EKVX NSCLC was above 25 µM throughout. In addition, the TGI in the assay on SK-MEL-28 melanoma and in the assay with LOX IMVI melanoma was above 25 µM throughout.
On to `COC(=O)CC[C@]1(C)O[C@H]2[C@H]([C@@H](C)CCCC(C)=O)OC(=O)[C@@H]2C[C@H]1O`, for which the GI50 in the assay on ACHN renal, in the assay with SF-268 CNS, in the assay with RPMI-8226 leukemia, in the assay with UACC-62 melanoma, with SK-MEL-5 melanoma and in the assay with EKVX NSCLC was above 100 µM in each case. For the same compound, the GI50 in the assay with SK-MEL-28 melanoma and with LOX IMVI melanoma was above 100 µM throughout. Besides, the concentration for total growth inhibition (TGI) with ACHN renal, with SF-268 CNS, in the assay on RPMI-8226 leukemia, with UACC-62 melanoma, with SK-MEL-5 melanoma and with EKVX NSCLC was above 100 µM in each case. For the same compound, the TGI with SK-MEL-28 melanoma and in the assay on LOX IMVI melanoma was above 100 µM in each case.
With `CCCN(CCC)c1ccc(/C=C/c2ccc3cc(OCC)ccc3n2)cc1`, the GI50 is 63.4 µM in the assay with ACHN renal; above 100 µM with SF-268 CNS; 6.29 µM with RPMI-8226 leukemia; 72.8 µM in the assay with UACC-62 melanoma; 23.6 µM in the assay on SK-MEL-5 melanoma; 91.4 µM in the assay with EKVX NSCLC. Also, the GI50 in the assay on SK-MEL-28 melanoma and in the assay with LOX IMVI melanoma was above 100 µM each time. Moreover, the TGI in the assay with ACHN renal, in the assay with SF-268 CNS, with RPMI-8226 leukemia, with UACC-62 melanoma, with SK-MEL-5 melanoma and in the assay with EKVX NSCLC was above 100 µM throughout. Also, the TGI in the assay on SK-MEL-28 melanoma and in the assay with LOX IMVI melanoma was above 100 µM each time.
